# Assay results: patent publication EP4721737A1, “USE OF PHARMACEUTICAL COMPOSITION COMPRISING COMPOUND HAVING BIS(AZANYLYLIDENE) SULFONYL STRUCTURE FOR TREATING ANEMIA-RELATED DISEASES” (Scinnohub Pharmaceutical Co., Ltd., priority 2023, dated 2024)
# Molecular target: T1, PKR in ex vivo red blood cells from healthy individuals (Homo sapiens, UniProt P30613)
# T1 construct: endogenous in cells; host or cells: human red blood cells isolated from fresh peripheral blood of healthy individuals
# Experiment: ex vivo pyruvate kinase (PKR) activity experiment, red blood cells of healthy individuals
# Format: cell-based
# Conditions: 3 hours co-cultivation
# Method: To test the effects of the compound of the present disclosure on PKR activation in ex vivo red blood cells from healthy individuals and patients with thalassemia.
# • i. 5 g of glucose, 85 mg of adenine, and 2.625 g of mannitol were weighed and added into a 50 mL centrifuge tube. 40 mL of PBS was added to dissolve (sonicate for 30 minutes until completely dissolved). The solution was filtered through a 0.22 µm filter, then added to 460 mL of sterile PBS and mixed thoroughly.
# • i. Fresh human peripheral blood was collected. K2EDTA was used as the anticoagulant. 1 part anticoagulant with 9 parts blood was mixed, then centrifuged at 500 g for 10 minutes at room temperature to remove the plasma. • ii. Packed red blood cells: 1.5 volumes of PBS were added, then centrifuged at 2000 ×g for 5 minutes at room temperature. After centrifugation, the supernatant was removed. This step was repeated twice. • iii. Diluted red blood cells: 1.5 volumes of PBS were added, then resuspended and mixed thoroughly. • iv. The diluted red blood cells were slowly added to 0.5 volume of 70% isotonic solution (e.g., 7.5 mL of diluted red blood cells + 3 mL of 70% isotonic solution Percoll) and centrifuged at 4000 ×g for 20 minutes at 4°C. • v. The supernatant was removed. The red blood cells at the bottom were washed once with 4-5 mL of PBS to elute the Percoll gel, and then centrifuged at 2000 ×g for 5 minutes at room temperature. • vi. The supernatant was removed. The red blood cells were counted and then diluted in AGAM medium containing 10% FBS to a density of 2 × 10^8 cells/mL for storage at 4°C.
# i. The red blood cells were seeded into a 96-well plate at a uniform density of 1 × 10^7 cells/mL, with 100 µL per well. The test compounds (dissolved in DMSO) were diluted and added to the cell culture medium, resulting in final compound concentrations of 3000, 1000, 300, 100, 10, 3, and 1 nM (with 1% DMSO). The cells and compounds were co-cultivated for 3 hours in a 37°C incubator with 5% CO2. Subsequently, the plate was centrifuged at 2000 g for 20 minutes, and the supernatant was discarded. 100 µL of red blood cell lysis buffer was added to the cell pellet, vortexed for 20 minutes, and centrifuged at 4000 g for 5 minutes. The supernatant was collected for analysis. ii. The reaction system was prepared according to the kit instructions (shown as the table below), 10 µL of the reaction system was added to each well of a 384-well plate, and 10 µL of red blood cell lysis buffer was took and mixed well (20 µL reaction system).
# iii. A black, transparent-bottomed 384-well plate was placed in a microplate reader to measure fluorescence at 540/590 nm. The fluorescence was read every 2 minutes for 1 hour.
# i. The Slope value was calculated over the assay time. Compound activation percentage was calculated using the 1% DMSO well as the control well. Activation percentage = (Slope of compound well / Slope of control well) × 100% ii. Dose-response curve was fit using the logarithmic compound concentration on the X-axis and the percent activation percentage on the Y-axis, the log(agonist) vs. response - variable slope function in GraphPad Prism 5 was used to determine the AC50 value for each compound on PKR activity. Y = min + (max−min)/(1+10^(∧)((LogAC50−X)×Hillslope)). [formula] The PKR agonist effects of the compound of the present disclosure on ex vivo red blood cells from healthy individuals and thalassemia patients were determined using the above assay. The AC50 values measured on ex vivo red blood cells from healthy individuals are as follows (A represents 0-100 nM, B represents 101-300 nM, and C represents 300-1000 nM): […]
# T1 sequence (P30613 whole entry): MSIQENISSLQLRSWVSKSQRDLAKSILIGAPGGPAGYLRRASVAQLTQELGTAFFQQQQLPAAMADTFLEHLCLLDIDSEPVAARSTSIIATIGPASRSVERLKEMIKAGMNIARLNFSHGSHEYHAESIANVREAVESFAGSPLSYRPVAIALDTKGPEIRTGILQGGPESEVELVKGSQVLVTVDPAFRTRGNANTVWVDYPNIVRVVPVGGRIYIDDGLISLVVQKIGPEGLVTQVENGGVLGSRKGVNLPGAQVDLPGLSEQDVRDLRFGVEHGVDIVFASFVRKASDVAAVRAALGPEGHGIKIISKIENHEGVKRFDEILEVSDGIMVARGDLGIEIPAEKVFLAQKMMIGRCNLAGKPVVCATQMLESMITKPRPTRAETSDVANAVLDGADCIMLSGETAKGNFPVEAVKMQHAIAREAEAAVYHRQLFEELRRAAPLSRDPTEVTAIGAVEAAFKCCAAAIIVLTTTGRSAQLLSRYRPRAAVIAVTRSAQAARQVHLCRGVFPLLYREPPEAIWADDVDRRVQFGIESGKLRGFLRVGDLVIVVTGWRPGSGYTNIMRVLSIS
row,Structure (SMILES),AC50
1,"O=C(N1CC(=C2CN(S(=O)(=O)c3ccc(OC(F)F)cc3)C2)C1)C1(c2ccccc2)CCOC1 (stereo not drawn) [Compound 37, (1'-((4-(difluoromethoxy)phenyl)sulfonyl)-1',4'-dihydro-2H,2'H-[3,3'-diazetidinylidene]-1(4H)-yl)(3-phenyltetrahydrofuran-3-yl)methanone]",300 to 1000 nM
2,"N#Cc1ccc(S(=O)(=O)N2CC(=C3CN(C(=O)[C@H](CO)c4ccccc4)C3)C2)nc1 [Compound 70, (S)-6-((1'-(3-hydroxy-2-phenylpropionyl)-1',4'-dihydro-2H,2'H-[3,3'-diazetidinylidene]-1(4H)-yl)sulfonyl)nicotinonitrile]",101 to 300 nM
3,"O=C([C@H](CO)c1ccccc1)N1CC(=C2CN(S(=O)(=O)c3ccc(OC(F)(F)F)cc3)C2)C1 [Compound 9, (S)-3-hydroxy-2-phenyl-1-(1'-((4-(trifluoromethoxy)phenyl)sulfonyl)-1',4'-dihydro-2H,2'H-[3,3'-diazetidinylidene]-1(4H)-yl)propan-1-one]",< 100 nM
4,"O=C([C@H](CO)c1ccccc1)N1CC(=C2CN(S(=O)(=O)c3cccnc3)C2)C1 [Compound 68, (S)-3-hydroxy-2-phenyl-1-(1'-(pyridin-3-ylsulfonyl)-1',4'-dihydro-2H,2'H-[3,3'-diazetidinylidene]-1(4H)-yl)propane-1-one]",101 to 300 nM
5,"O=C([C@H](CO)c1ccccc1)N1CC(=C2CN(S(=O)(=O)c3ccc(OC(F)F)cc3)C2)C1 [Compound 7, (S)-1-(1'-((4-(difluoromethoxy)phenyl)sulfonyl)-1',4'-dihydro-2H,2'H-[3,3'-diazetidinylidene]-1(4H)-yl)-3-hydroxy-2-phenylpropan-1-one]",< 100 nM
6,"O=C1COc2ccc(S(=O)(=O)N3CC(=C4CN(C(=O)[C@H](CO)c5ccccc5)C4)C3)cc2N1 [Compound 40, (S)-6-((1'-(3-hydroxy-2-phenylpropionyl)-1',4'-dihydro-2H,2'H-[3,3'-diazetidinylidene]-1(4H)-yl)sulfonyl)-2H-benzo[b][1,4]oxazine-3(4H)-one]",300 to 1000 nM
7,"O=C([C@H](CO)c1ccccc1)N1CC(=C2CN(S(=O)(=O)c3ccc4c(c3)NCCO4)C2)C1 [Compound 12, (S)-1-(1'-((3,4-dihydro-2H-benzo[b][1,4]oxazin-6-yl)sulfonyl)-1',4'-dihydro-2H,2'H-[3,3'-diazetidinylidene]-1(4H)-yl)-3-hydroxy-2-phenylpropan-1-one]",300 to 1000 nM
8,"O=C(C(CO)c1ccc(F)cc1)N1CC(=C2CN(S(=O)(=O)c3ccc4c(c3)OC(F)(F)O4)C2)C1 (stereo not drawn) [Compound 36, 1-(1'-((2,2-difluorobenzo[d][1,3]dioxolan-5-yl)sulfonyl)-1',4'-dihydro-2H,2'H-[3,3'-diazetidinylidene]-1(4H)-yl)-2-(4-fluorophenyl)-3-hydroxypropan-1-one]",< 100 nM
9,"O=C([C@H](CO)c1ccccc1)N1CC(=C2CN(S(=O)(=O)c3ccc4c(c3)OCCO4)C2)C1 [Compound 2, (S) -1-(1'-((2,3-dihydrobenzo[b][1,4]dioxin-6-yl)sulfonyl)-1',4'-dihydro-2H,2'H-[3,3'-diazetidinylidene]-1(4H)-yl)-3-hydroxy-2-phenylpropan-1-one]",300 to 1000 nM
10,"O=C(C(CO)c1ccc(F)c(F)c1)N1CC(=C2CN(S(=O)(=O)c3ccccn3)C2)C1 (stereo not drawn) [Compound 61, 2-(3,4-difluorophenyl)-3-hydroxy-1-(1'-(pyridin-2-ylsulfonyl)-1',4'-dihydro-2H,2'H-[3,3'-diazetidinylidene]-1(4H)-yl)propan-1-one]",101 to 300 nM
11,"O=C([C@H](CO)c1ccccc1)N1CC(=C2CN(S(=O)(=O)c3cnc4c(c3)OCCO4)C2)C1 [Compound 1, (S)-1-(1'-((2,3-dihydro-[1,4]dioxino[2,3-b]pyridin-7-yl)sulfonyl)-1',4'-dihydro-2H,2'H-[3,3'-diazetidinylidene]-1(4H)-yl)-3-hydroxy-2-phenylpropan-1-one]",101 to 300 nM
12,"Cn1cnc2ccc(S(=O)(=O)N3CC(=C4CN(C(=O)[C@H](CO)c5ccccc5)C4)C3)cc21 [Compound 63, (S)-3-hydroxy-1-(1'-((1-methyl-1H-benzimidazol-6-yl)sulfonyl)-1',4'-dihydro-2H,2'H-[3,3'-diazetidinylidene]-1(4H)-yl)-2-phenylpropan-1-one]",300 to 1000 nM
13,"O=C([C@H](CO)c1ccccc1)N1CC(=C2CN(S(=O)(=O)c3ccccn3)C2)C1 [Compound 4, (S)-3-hydroxy-2-phenyl-1-(1'-(pyridin-2-ylsulfonyl)-1',4'-dihydro-2H,2'H-[3.3'-diazetidinylidene]-1(4H)-yl)propan-1-one]",< 100 nM
14,"CC(C)Oc1ccc(S(=O)(=O)N2CC(=C3CN(C(=O)[C@H](CO)c4ccccc4)C3)C2)nc1 [Compound 81, (S)-3-hydroxy-1-(1'-((5-isopropoxypyridin-2-yl)sulfonyl)-1',4'-dihydro-2H,2'H-[3,3'-diazetidinylidene]-1(4H)-yl)-2-phenylpropan-1-one]",300 to 1000 nM
15,"O=C([C@H](CO)c1ccc(F)cc1)N1CC(=C2CN(S(=O)(=O)c3ccc4ncsc4c3)C2)C1 [Compound 25, (S)-1-(1'-(benzo[d]thiazol-6-ylsulfonyl)-1',4'-dihydro-2H,2'H-[3,3'-diazetidinylidene]-1(4H)-yl)-2-(4-fluorophenyl)-3-hydroxypropan-1-one]",300 to 1000 nM
16,"CN1C(=O)COc2ccc(S(=O)(=O)N3CC(=C4CN(C(=O)[C@H](CO)c5ccccc5)C4)C3)cc21 [Compound 41, (S)-6-((1'-(3-hydroxy-2-phenylpropionyl)-1',4'-dihydro-2H,2'H-[3,3'-diazetidinylidene]-1(4H)-yl)sulfonyl)-4-methyl-2H-benzo[b][1,4]oxazine-3(4H)-one]",< 100 nM
17,"O=C([C@H](CO)c1ccccc1)N1CC(=C2CN(S(=O)(=O)c3cc(F)c4c(c3)OCCO4)C2)C1 [Compound 20, (S)-1-(1'-((8-fluoro-2,3-dihydrobenzo[b][1,4]dioxin-6-yl)sulfonyl)-1',4'-dihydro-2H,2'H-[3,3'-diazetidinylidene]-1(4H)-yl)-3-hydroxy-2-phenylpropan-1-one]",300 to 1000 nM
18,O=C([C@H](CO)c1ccccc1)N1CC(=C2CN(S(=O)(=O)c3ccc(F)cc3)C2)C1 [Compound 10],< 100 nM
19,"CN1CCN(c2cccc(C(O)C(=O)N3CC(=C4CN(S(=O)(=O)c5ccc6ncsc6c5)C4)C3)c2)CC1 (stereo not drawn) [Compound 43, 1-(1'-(benzo[d]thiazol-6-ylsulfonyl)-1',4'-dihydro-2H,2'H-[3,3'-diazetidinylidene]-1(4H)-yl)-2-hydroxy-2-(3-(4-methylpiperazin-1-yl)phenyl)ethan-1-one]",101 to 300 nM
20,O=C([C@H](CO)c1ccccc1)N1CC(=C2CN(S(=O)(=O)c3ccc(OC(F)F)c(F)c3)C2)C1 [Compound 11],< 100 nM
21,O=C([C@H](CO)c1ccccc1)N1CC(=C2CN(S(=O)(=O)c3ccc(Cl)cn3)C2)C1 [Compound 66],< 100 nM
22,"O=C(C(CO)c1ccc(F)c(Cl)c1)N1CC(=C2CN(S(=O)(=O)c3ccccn3)C2)C1 (stereo not drawn) [Compound 59, 2-(3-chloro-4-fluorophenyl)-3-hydroxy-1-(1'-(pyridin-2-ylsulfonyl)-1',4'-dihydro-2H,2'H-[3,3'-diazetidinylidene]-1(4H)-yl)propan-1-one]",< 100 nM
23,"O=C([C@H](CO)c1ccccc1)N1CC(=C2CN(S(=O)(=O)c3ccc4ncsc4c3)C2)C1 [Compound 3, (S)-1-(1'-(benzo[d]thiazol-6-ylsulfonyl)-1',4'-dihydro-2H,2'H-[3,3'-diazetidinylidene]-1(4H)-yl)-3-hy droxy-2-phenylpropan-1-one]",101 to 300 nM
24,"O=C(C(CO)C1CCCCC1)N1CC(=C2CN(S(=O)(=O)c3ccccn3)C2)C1 (stereo not drawn) [Compound 90, 2-cyclohexyl-3-hydroxy-1-(1'-(pyridin-2-ylsulfonyl)-1',4'-dihydro-2H,2'H-[3,3'-diazetidinylidene]-1(4H)-yl)propan-1-one]",300 to 1000 nM
